The target of assay [1] is T1, Tyrosine-protein kinase SYK (Homo sapiens, UniProt P43405). The assay can be described thus: Dissociation binding constant for Syk tandem SH2 domain.
In assay [2] the target is T1, Tyrosine-protein kinase SYK. The assay is described as follows: Binding affinity for Syk tandem SH2 domain in surface plasmon resonance assay (SPR).

This note sets out measurements from ChEMBL document CHEMBL1136671, “Amino propynyl benzoic acid building block in rigid spacers of divalent ligands binding to the Syk SH2 domains with equally high affinity as the natural ligand” (Bioorg Med Chem Lett, 2003).

Numbered stars: 1 amine (or outer) side, 2 acyl side, 3 side chain; on linkers, the order of the positions; unused ones are H or OH. Square brackets hold non-standard residues; d marks the D form. Peptide text beside a SMILES is read from it. NH(CH2CH2O)6CH2CO = O=C(COCCOCCOCCOCCOCCOCCN[*:1])[*:2]; pY = N[C@@H](Cc1ccc(OP(=O)(O)O)cc1)C(=O)O; X1 = O=C(c1ccc(C#CCN[*:1])cc1)[*:2]

Take `CC(=O)N[C@@H](Cc1ccc(OP(=O)(O)O)cc1)C(=O)N[C@H](C(=O)NCC(=O)N[C@@H](CC(C)C)C(=O)NCC(=O)NCC#Cc1ccc(C(=O)NCC(=O)N[C@@H](Cc2ccc(OP(=O)(O)O)cc2)C(=O)N[C@@H](CCC(=O)O)C(=O)N[C@H](C(=O)N[C@@H](CC(C)C)C(N)=O)[C@@H](C)O)cc1)[C@@H](C)O` (Ac-[pY]TGLG[X1]G[pY]ETL-NH2): in assay [1], the Kd (as a rule, the concentration at which binding is half-saturated) turned out to be 4000 nM. Moreover, the IC50 – broadly, the concentration that gives 50% inhibition – in assay [2] was found to be 62000 nM.

On to `CC(=O)N[C@@H](Cc1ccc(OP(=O)(O)O)cc1)C(=O)N[C@H](C(=O)NCC(=O)N[C@@H](CC(C)C)C(=O)N[C@@H](CC(N)=O)C(=O)N[C@H](C(=O)N[C@@H](CCCN=C(N)N)C(=O)N[C@@H](CO)C(=O)N[C@@H](CCC(N)=O)C(=O)N[C@@H](CCC(=O)O)C(=O)N[C@H](C(=O)N[C@@H](Cc1ccc(OP(=O)(O)O)cc1)C(=O)N[C@@H](CCC(=O)O)C(=O)N[C@H](C(=O)N[C@@H](CC(C)C)C(N)=O)[C@@H](C)O)[C@@H](C)O)[C@@H](C)O)[C@@H](C)O` (Ac-[pY]TGLNTRSQET[pY]ETL-NH2), for which, in assay [1], the equilibrium dissociation constant (Kd) came to 37 nM. This molecule also had a half-maximal inhibitory concentration (IC50) in assay [2] of 130 nM.

In the case of `CC(=O)N[C@@H](Cc1ccc(OP(=O)(O)O)cc1)C(=O)N[C@H](C(=O)NCC(=O)N[C@@H](CC(C)C)C(=O)NCC#Cc1ccc(C(=O)NCC#Cc2ccc(C(=O)N[C@@H](Cc3ccc(OP(=O)(O)O)cc3)C(=O)N[C@@H](CCC(=O)O)C(=O)N[C@H](C(=O)N[C@@H](CC(C)C)C(N)=O)[C@@H](C)O)cc2)cc1)[C@@H](C)O` (Ac-[pY]TGL[X1][X1][pY]ETL-NH2), the dissociation constant (Kd) in assay [1] stood at 29 nM. Also, in assay [2], the half-maximal inhibitory concentration (IC50) stood at 100 nM.

In turn, `CC(=O)N[C@@H](Cc1ccc(OP(=O)(O)O)cc1)C(=O)N[C@@H](CCC(=O)O)C(=O)N[C@H](C(=O)N[C@@H](CC(C)C)C(N)=O)[C@@H](C)O` (Ac-[pY]ETL-NH2) displayed a dissociation constant Kd in assay [1] of 166000 nM. In assay [2], this molecule displayed an IC50 of 570000 nM.

Molecule `CC(=O)N[C@@H](Cc1ccc(OP(=O)(O)O)cc1)C(=O)N[C@H](C(=O)NCC(=O)N[C@@H](CC(C)C)C(=O)NCCOCCOCCOCCOCCOCCOCC(=O)N[C@@H](Cc1ccc(OP(=O)(O)O)cc1)C(=O)N[C@@H](CCC(=O)O)C(=O)N[C@H](C(=O)N[C@@H](CC(C)C)C(N)=O)[C@@H](C)O)[C@@H](C)O` (Ac-[pY]TGL[NH(CH2CH2O)6CH2CO][pY]ETL-NH2) showed a Kd in assay [1] of 340 nM. Moreover, in assay [2], the IC50 came out at 1200 nM.
